According to the NIST ThermoML archive (doi:10.1021/je049940f):
Numbers after ± are expanded uncertainties. Each block holds one compound with its values, some of them ahead of it.

Columns and labels:
[1] = xn = mol fraction of the nth substance listed; details: 10000 kPa, Liquid
[2] = wn = mass fraction of the nth substance listed; details: Liquid

viscosity ([1]; 303.15 K, x1 = 0.0073): 0.81 ± 0.05 mPa·s
viscosity ([1]; 303.15 K, x1 = 0.0148): 0.86 ± 0.05 mPa·s
viscosity ([1]; 303.15 K, x1 = 0.0238): 0.89 ± 0.06 mPa·s
viscosity ([1]; 313.15 K, x1 = 0.0107): 0.68 ± 0.04 mPa·s
viscosity ([1]; 313.15 K, x1 = 0.0207): 0.7 ± 0.06 mPa·s
Structure (SMILES): O=C=O [carbon dioxide] + O

viscosity ([2]; 303.15 K, 10000 kPa, w1 = 0.03): 0.84 ± 0.05 mPa·s
viscosity ([2]; 303.15 K, 20000 kPa, w1 = 0.03): 0.83 ± 0.05 mPa·s
viscosity ([2]; 313.15 K, 10000 kPa, w1 = 0.03): 0.68 ± 0.04 mPa·s
viscosity ([2]; 313.15 K, 20000 kPa, w1 = 0.03): 0.69 ± 0.04 mPa·s
viscosity ([2]; 323.15 K, 10000 kPa, w1 = 0.03): 0.59 ± 0.04 mPa·s
viscosity ([2]; 323.15 K, 20000 kPa, w1 = 0.03): 0.59 ± 0.04 mPa·s
viscosity ([2]; 333.15 K, 10000 kPa, w1 = 0.03): 0.49 ± 0.04 mPa·s
viscosity ([2]; 333.15 K, 20000 kPa, w1 = 0.03): 0.5 ± 0.04 mPa·s
Structure (SMILES): [Cl-].[Na+] [sodium chloride] + O

viscosity ([2]; 303.15 K, 10000 kPa, w2 = 0): 0.8 ± 0.05 mPa·s
viscosity ([2]; 313.15 K, 10000 kPa, w2 = 0): 0.66 ± 0.04 mPa·s
viscosity ([2]; 323.15 K, 10000 kPa, w2 = 0): 0.56 ± 0.04 mPa·s
viscosity ([2]; 333.15 K, 10000 kPa, w2 = 0): 0.47 ± 0.04 mPa·s
Structure (SMILES): O [water] + [Cl-].[Na+]
